In ChEMBL document CHEMBL5465560, “Selectivity Literature for EUbOPEN Chemogenomic Library” (2024):
Residue numbers refer to the chain shown, from its start. Values belong to the molecule of their own block, whether it stands above or below them.

Tests used:
[1] = system: T1, Receptor-type tyrosine-protein kinase FLT3 (Homo sapiens), P36888 [N841I]; assay: (§1) Selectivity interaction (KinomeScan (DiscoverX)) EUB0000045b FLT3
T1 sequence (whole entry): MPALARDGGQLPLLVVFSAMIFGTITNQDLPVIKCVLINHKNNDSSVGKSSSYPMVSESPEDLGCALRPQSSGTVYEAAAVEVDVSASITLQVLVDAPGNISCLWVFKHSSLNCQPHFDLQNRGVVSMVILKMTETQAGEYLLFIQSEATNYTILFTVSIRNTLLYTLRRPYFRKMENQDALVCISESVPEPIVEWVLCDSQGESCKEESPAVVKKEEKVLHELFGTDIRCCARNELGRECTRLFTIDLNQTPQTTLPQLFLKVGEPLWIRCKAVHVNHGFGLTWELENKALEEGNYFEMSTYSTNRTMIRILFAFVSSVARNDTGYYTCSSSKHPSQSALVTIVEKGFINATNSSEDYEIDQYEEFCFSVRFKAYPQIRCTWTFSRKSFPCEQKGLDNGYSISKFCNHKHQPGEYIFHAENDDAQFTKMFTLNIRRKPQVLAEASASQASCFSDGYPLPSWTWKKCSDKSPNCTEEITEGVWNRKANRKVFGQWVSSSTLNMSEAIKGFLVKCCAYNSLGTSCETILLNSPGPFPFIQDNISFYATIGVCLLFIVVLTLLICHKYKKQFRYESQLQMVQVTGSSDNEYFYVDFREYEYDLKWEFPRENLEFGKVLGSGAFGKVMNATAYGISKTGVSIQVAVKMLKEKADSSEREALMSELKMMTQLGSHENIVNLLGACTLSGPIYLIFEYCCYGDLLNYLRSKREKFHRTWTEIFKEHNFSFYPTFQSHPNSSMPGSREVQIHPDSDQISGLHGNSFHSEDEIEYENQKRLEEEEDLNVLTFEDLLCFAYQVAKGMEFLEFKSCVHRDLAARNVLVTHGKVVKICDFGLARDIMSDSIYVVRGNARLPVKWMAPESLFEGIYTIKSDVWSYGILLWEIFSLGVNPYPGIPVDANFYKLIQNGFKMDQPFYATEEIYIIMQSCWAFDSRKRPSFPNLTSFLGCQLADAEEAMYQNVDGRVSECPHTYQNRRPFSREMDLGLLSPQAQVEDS

[2] = system: T2, Receptor-type tyrosine-protein kinase FLT3 (Homo sapiens), P36888 [D835Y]; assay: as §1
T2 sequence (whole entry): T1 sequence (whole entry) with D835Y, I841N

[3] = molecular target: T3, Ephrin type-A receptor 3 (Homo sapiens) (UniProt P29320); assay: Selectivity interaction (Upstate Kinase Profiler service (Millipore)) EUB0000056c EPHA3; settings: at 1 µM
T3 sequence (whole entry): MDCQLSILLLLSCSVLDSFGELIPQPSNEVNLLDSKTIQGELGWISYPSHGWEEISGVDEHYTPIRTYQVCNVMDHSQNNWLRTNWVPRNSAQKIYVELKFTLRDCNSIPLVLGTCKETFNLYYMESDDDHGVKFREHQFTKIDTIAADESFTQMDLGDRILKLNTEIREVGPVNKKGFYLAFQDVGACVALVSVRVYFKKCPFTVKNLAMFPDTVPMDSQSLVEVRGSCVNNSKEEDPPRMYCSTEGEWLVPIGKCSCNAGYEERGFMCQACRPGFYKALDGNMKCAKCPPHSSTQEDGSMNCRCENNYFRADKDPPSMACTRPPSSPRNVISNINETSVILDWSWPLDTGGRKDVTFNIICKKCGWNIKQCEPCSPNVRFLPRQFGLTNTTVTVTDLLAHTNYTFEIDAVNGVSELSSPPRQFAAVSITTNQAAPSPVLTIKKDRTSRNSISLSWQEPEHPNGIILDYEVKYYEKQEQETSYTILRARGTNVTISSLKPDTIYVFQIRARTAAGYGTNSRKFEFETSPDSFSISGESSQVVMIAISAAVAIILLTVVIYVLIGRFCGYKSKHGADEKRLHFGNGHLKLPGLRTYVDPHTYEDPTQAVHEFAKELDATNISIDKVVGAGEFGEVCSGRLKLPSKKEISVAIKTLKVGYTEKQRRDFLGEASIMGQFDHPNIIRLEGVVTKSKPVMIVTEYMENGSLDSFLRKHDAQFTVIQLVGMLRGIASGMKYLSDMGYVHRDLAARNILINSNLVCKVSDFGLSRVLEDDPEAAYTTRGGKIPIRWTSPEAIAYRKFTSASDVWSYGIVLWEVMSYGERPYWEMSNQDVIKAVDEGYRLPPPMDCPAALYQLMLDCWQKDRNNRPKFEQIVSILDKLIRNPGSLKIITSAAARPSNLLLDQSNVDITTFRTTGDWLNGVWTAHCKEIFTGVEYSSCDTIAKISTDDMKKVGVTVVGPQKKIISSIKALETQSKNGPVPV

[4] = molecular target: SRSF protein kinase 3 (Homo sapiens) (UniProt Q9UPE1); assay: Selectivity interaction (ProQinase) EUB0000171b SRPK3
Chain of SRSF protein kinase 3 (Homo sapiens) (Q9UPE1 whole entry): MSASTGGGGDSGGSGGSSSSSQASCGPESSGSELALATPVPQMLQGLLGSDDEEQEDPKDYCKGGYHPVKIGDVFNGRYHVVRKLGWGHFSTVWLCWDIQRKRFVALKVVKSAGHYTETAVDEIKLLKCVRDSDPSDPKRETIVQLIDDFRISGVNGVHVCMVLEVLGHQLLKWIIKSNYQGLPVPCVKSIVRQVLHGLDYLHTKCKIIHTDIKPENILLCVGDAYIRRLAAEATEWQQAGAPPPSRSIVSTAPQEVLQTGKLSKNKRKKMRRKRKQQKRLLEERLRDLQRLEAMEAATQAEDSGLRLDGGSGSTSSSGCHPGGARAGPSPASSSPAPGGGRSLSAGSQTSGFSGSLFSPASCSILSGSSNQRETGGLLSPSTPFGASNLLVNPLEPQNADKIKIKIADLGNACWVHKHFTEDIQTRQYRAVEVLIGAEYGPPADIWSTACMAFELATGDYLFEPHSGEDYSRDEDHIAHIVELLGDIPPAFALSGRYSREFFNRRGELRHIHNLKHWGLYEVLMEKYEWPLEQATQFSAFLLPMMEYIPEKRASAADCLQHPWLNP

Structure (SMILES): C=CC(=O)Nc1cc(-n2c(=O)ccc3cnc4ccc(-c5ccc(NS(C)(=O)=O)cc5)cc4c32)ccc1C
% of control ([1]; at 1 µM): 85%
% of control ([1]; at 10 µM): 86%
% of control ([2]; at 1 µM): 100%
% of control ([2]; at 10 µM): 100%

% of inhibition [3]: -1%
Structure (SMILES): Cc1ccc(-c2ccc3c(ccc4sc5c(c43)NC[C@@H](C)NC5=O)n2)cn1

% of control ([4]; at 1 µM): 97%
% of control ([4]; at 5 µM): 101%
Structure (SMILES): C=CC(=O)Nc1cccc(C(=O)Nc2ccc(Nc3cc(-c4[nH]c(SC)nc4C)ccn3)cc2)c1
